Active and inactive are the calls of the source. No cut-off for these calls is given here.
Experiments:
[1] = biological target: Bromodomain-containing protein 3 (Homo sapiens) (UniProt Q15059); test: Binding affinity to human BRD3 at 10 uM by differential scanning fluorimetry
[2] = biological target: T1, Bromodomain-containing protein 7 (Homo sapiens, UniProt Q9NPI1); test: Binding affinity to human BRD7 by isothermal titration calorimetry
T1 sequence (Q9NPI1 whole entry): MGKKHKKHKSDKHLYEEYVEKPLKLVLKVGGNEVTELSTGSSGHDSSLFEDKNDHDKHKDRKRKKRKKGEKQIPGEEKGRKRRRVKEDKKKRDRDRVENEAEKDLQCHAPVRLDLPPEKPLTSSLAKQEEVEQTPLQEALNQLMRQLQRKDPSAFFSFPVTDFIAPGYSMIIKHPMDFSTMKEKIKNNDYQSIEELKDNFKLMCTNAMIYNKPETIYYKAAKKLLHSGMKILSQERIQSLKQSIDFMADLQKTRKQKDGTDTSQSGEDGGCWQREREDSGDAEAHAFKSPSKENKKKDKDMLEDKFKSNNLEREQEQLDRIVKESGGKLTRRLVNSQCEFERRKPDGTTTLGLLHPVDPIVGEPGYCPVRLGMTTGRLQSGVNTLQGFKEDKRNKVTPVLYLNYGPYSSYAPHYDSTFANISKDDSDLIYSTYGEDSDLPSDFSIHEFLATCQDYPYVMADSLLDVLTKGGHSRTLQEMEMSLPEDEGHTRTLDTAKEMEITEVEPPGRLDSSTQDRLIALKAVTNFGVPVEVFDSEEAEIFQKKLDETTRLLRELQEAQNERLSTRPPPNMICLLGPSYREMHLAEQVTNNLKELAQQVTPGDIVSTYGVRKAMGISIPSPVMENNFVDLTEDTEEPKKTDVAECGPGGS

[3] = biological target: Histone acetyltransferase p300 (Homo sapiens) (UniProt Q09472); test: Binding affinity to human p300 assessed as change in melting temperature at 10 uM by differential scanning fluorimetry
[4] = biological target: T2, Bromodomain-containing protein 1 (Homo sapiens) (UniProt O95696); test: Binding affinity to human BRD1 at 10 uM by differential scanning fluorimetry
T2 sequence (whole entry): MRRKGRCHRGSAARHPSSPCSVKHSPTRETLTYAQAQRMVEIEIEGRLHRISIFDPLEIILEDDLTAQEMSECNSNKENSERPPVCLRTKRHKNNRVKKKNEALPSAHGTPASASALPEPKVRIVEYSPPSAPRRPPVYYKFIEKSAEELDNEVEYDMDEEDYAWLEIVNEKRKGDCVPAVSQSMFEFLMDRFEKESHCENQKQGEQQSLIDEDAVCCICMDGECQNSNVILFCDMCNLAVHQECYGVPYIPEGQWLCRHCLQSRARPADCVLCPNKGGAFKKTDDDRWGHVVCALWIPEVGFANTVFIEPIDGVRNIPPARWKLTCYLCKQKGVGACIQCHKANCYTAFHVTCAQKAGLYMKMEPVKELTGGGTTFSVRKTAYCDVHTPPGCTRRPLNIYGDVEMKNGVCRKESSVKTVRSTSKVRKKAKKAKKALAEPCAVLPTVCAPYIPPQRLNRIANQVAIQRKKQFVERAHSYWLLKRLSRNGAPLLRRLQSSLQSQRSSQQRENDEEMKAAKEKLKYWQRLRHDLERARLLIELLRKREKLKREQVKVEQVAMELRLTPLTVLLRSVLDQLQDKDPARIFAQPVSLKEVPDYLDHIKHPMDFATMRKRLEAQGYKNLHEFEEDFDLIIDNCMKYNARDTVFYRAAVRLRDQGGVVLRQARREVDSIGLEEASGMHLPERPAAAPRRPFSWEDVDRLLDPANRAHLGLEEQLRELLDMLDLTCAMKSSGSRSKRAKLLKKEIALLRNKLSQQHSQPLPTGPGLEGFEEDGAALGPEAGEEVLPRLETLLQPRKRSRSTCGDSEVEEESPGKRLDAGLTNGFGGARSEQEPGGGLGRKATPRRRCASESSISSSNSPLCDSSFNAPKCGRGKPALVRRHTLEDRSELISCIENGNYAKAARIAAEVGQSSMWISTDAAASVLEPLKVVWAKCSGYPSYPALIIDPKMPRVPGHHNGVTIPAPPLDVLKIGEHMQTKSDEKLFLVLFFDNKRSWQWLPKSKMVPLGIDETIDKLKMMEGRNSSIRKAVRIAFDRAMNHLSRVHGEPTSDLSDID

[5] = biological target: Bromodomain-containing protein 2 (Homo sapiens) (UniProt P25440); test: Binding affinity to human BRD2 at 10 uM by differential scanning fluorimetry
[6] = biological target: T3, Bromodomain-containing protein 4 (Homo sapiens, UniProt O60885); test: Binding affinity to human BRD4 at 15 uM by isothermal titration calorimetry
[7] = biological target: T3, Bromodomain-containing protein 4; test: Binding affinity to human BRD4 assessed as change in melting temperature at 10 uM by differential scanning fluorimetry
[8] = biological target: CREB-binding protein (Homo sapiens) (UniProt Q92793); test: Binding affinity to human CBP assessed as change in melting temperature at 10 uM by differential scanning fluorimetry
[9] = biological target: Nucleosome-remodeling factor subunit BPTF (Homo sapiens) (UniProt Q12830); test: Binding affinity to human FALZ assessed as change in melting temperature at 10 uM by differential scanning fluorimetry
[10] = biological target: T4, Bromodomain-containing protein 9 (Homo sapiens, UniProt Q9H8M2); test: Inhibition of human BRD9 by alpha screen assay
T4 sequence (Q9H8M2 whole entry): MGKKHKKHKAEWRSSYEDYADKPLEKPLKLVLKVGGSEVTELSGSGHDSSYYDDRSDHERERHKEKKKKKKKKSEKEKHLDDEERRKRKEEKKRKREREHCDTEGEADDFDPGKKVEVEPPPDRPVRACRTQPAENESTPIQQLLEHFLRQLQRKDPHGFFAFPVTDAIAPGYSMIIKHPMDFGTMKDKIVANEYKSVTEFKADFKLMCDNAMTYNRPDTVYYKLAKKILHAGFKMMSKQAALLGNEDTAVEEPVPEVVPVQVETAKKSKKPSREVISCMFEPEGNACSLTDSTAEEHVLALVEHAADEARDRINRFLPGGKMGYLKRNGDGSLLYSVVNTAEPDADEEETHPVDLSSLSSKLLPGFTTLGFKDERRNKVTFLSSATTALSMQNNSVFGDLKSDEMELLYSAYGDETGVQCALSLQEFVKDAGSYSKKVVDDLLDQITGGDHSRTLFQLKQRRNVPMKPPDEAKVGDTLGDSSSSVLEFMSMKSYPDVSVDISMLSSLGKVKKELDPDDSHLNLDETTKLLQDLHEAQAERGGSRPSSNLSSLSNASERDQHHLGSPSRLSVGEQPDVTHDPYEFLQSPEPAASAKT

[11] = biological target: T5, Bromodomain-containing protein 9 (Homo sapiens) (UniProt Q9H8M2); test: Inhibition of human BRD9 expressed in U2OS cells assessed as inhibition of BRD9-chromatin association after 24 hrs by FRAP assay in presence of pan-HDAC inhibitor SAHA; format: cell-based
T5 sequence (whole entry): T4 sequence (Q9H8M2 whole entry)

[12] = biological target: T6, Bromodomain-containing protein 7 (Homo sapiens) (UniProt Q9NPI1); test: Binding affinity to human BRD7 assessed as change in melting temperature at 10 uM by differential scanning fluorimetry
T6 sequence (whole entry): T1 sequence (Q9NPI1 whole entry)

Chain of Histone acetyltransferase p300 (Homo sapiens) (Q09472 whole entry): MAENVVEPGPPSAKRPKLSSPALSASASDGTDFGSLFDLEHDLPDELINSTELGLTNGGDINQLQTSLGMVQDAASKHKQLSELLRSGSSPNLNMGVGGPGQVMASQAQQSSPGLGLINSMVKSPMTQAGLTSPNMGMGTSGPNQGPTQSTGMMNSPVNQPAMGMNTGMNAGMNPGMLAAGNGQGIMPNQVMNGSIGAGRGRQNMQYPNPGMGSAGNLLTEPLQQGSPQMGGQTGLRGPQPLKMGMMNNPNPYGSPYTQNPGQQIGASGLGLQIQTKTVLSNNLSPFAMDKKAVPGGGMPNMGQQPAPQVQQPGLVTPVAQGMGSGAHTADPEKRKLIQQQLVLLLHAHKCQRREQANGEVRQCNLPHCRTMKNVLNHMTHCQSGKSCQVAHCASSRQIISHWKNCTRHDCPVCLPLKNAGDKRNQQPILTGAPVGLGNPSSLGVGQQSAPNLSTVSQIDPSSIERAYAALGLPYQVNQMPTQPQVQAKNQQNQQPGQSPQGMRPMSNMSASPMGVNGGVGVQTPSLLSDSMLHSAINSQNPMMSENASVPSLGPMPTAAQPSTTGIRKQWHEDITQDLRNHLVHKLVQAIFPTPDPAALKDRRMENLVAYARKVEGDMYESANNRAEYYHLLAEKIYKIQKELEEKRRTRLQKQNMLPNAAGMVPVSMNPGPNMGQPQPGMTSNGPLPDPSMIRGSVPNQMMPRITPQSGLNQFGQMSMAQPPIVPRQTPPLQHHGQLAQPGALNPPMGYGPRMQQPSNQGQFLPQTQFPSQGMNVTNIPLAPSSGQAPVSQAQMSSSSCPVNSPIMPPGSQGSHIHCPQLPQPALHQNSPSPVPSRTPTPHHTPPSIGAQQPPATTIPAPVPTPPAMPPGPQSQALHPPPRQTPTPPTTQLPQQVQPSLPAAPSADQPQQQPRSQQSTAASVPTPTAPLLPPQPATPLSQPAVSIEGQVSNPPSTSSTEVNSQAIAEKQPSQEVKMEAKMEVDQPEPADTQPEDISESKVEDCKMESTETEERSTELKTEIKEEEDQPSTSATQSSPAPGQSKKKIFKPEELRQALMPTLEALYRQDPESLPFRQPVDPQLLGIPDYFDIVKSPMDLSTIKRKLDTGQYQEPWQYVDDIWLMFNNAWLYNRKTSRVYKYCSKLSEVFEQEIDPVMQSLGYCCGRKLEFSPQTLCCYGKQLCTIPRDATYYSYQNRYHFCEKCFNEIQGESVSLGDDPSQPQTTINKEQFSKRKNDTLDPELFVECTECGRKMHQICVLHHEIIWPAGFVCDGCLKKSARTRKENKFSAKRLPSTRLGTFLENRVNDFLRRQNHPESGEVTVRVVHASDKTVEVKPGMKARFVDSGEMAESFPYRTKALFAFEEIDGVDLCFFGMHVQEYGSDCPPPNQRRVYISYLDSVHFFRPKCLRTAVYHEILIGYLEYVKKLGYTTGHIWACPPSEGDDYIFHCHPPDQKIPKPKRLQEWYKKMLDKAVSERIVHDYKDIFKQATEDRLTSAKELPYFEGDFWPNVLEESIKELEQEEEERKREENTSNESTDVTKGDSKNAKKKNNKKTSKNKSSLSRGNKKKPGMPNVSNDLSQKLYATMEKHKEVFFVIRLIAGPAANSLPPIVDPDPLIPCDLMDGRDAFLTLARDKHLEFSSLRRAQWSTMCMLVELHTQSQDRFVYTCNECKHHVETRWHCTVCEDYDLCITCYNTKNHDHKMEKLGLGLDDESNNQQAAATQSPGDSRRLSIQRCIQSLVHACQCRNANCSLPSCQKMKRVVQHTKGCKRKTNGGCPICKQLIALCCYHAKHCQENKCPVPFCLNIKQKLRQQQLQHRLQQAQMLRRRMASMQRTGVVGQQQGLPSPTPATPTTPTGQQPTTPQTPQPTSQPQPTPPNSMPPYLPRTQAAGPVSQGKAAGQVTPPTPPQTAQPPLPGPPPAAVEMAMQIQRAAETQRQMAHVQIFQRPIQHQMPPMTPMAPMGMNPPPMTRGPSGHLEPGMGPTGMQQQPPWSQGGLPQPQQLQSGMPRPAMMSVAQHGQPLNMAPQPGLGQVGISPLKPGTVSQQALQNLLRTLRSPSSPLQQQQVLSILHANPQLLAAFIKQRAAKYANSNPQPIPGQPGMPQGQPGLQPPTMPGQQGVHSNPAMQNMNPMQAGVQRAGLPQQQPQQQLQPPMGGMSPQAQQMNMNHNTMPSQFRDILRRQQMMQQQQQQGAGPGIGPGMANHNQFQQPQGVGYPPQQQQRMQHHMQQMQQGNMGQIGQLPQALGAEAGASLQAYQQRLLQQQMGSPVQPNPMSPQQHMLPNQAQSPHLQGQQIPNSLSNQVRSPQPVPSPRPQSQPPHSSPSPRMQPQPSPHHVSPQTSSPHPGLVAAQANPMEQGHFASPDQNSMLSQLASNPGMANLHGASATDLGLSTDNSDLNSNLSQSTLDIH
Chain of Bromodomain-containing protein 2 (Homo sapiens) (P25440 whole entry, looked up): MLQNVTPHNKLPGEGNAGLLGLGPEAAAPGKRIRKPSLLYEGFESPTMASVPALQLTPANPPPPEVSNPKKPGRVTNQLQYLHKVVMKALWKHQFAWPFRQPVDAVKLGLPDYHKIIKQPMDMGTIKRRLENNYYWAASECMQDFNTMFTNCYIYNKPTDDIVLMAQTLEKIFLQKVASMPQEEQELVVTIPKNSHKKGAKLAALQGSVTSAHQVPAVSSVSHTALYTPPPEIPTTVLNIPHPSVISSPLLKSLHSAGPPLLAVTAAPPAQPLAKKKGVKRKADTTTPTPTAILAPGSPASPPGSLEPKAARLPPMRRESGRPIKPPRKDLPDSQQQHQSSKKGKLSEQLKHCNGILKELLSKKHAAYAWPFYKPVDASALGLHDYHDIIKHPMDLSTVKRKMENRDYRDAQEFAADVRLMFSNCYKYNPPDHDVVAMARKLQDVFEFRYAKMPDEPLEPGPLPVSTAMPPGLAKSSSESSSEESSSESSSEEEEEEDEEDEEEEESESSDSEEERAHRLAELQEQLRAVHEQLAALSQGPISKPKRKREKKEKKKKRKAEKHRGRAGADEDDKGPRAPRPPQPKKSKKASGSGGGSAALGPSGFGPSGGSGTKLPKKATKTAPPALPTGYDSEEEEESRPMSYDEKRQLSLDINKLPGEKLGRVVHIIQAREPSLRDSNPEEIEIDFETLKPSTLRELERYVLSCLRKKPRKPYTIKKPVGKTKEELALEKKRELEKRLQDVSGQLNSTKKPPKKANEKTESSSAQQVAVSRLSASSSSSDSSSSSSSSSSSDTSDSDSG
Chain of Bromodomain-containing protein 3 (Homo sapiens) (Q15059 2-726 limits assumed): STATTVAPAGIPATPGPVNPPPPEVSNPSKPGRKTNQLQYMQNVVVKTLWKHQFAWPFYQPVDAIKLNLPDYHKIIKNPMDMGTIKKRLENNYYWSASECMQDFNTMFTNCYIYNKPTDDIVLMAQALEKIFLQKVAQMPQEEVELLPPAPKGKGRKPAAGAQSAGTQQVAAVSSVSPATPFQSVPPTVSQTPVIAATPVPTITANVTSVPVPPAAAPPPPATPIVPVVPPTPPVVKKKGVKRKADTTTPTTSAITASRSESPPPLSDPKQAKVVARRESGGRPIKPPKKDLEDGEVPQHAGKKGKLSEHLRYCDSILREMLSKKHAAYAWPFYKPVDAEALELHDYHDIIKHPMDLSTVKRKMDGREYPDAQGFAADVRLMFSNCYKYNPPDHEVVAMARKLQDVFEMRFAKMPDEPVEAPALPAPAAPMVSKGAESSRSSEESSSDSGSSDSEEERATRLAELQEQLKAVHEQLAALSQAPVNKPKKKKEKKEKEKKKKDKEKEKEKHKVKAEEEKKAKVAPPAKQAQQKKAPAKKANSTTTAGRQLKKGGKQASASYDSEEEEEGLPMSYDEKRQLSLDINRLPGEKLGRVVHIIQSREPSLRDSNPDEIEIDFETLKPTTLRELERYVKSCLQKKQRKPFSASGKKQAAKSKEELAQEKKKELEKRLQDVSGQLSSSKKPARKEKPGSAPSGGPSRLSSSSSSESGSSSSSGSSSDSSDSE

CC(=O)c1cc(-c2cccc3nccn23)c2cc(N3CCOCC3)ccn12
Activity [1]: Active
Kd [2]: 368 nM
ΔTm [3]: 2 °C
Activity [4]: Active
Activity [5]: Active
Activity [6]: inactive
ΔTm [7]: 1.3 °C
ΔTm [8]: 1.8 °C
ΔTm [9]: 1.1 °C
IC50 [10]: 126 nM
inhibition [11]: Dose-dependent effect
ΔTm [12]: 5.6 °C
